Data set [1] relates to Plasmodium berghei. Kind of data set: Antimalarial activity against Plasmodium berghei ANKA expressing GFP infected in mouse assessed as cure from infection at 100 mg/kg, po administered 24 hrs post-infection measured on day 30. Type of data set: functional, organism-based. Details: dose 100 mg/kg.
Data set [2] concerns Heart. Kind of data set: Cardiotoxicity against Sprague-Dawley rat Langendorff perfused heart assessed as cycle length time at 10 uM by electrophysiological analysis (reference value: 258.62 8.87 ms). It counts as toxicity, tissue-based.
The test system of data set [3] is Plasmodium berghei. Kind of data set: Antimalarial activity against Plasmodium berghei ANKA expressing GFP infected in mouse assessed as reduction in parasitemia at 30 mg/kg, po administered 24 hrs post-infection measured 48 hrs post-dosing by flow cytometric analysis. It counts as functional. Further details: scale not given: the % may be the effect or the level left.

Data set [4] relates to Plasmodium berghei. Kind of data set: Antimalarial activity against Plasmodium berghei ANKA expressing GFP infected in mouse assessed as mean survival days at 50 mg/kg, po administered QD for 3 days (reference value: 6 to 7 days). Type of data set: functional.
Data set [5] concerns Heart. Kind of data set: Cardiotoxicity against Sprague-Dawley rat Langendorff perfused heart assessed as heart rate at 0.1 uM by electrophysiological analysis (reference value: 236.68 7.83 bpm). Type of data set: toxicity, tissue-based.
Data set [6] is described as follows: Apparent volume of distribution in CD1 albino mouse at 50 mg/kg, po. Type of data set: ADME, organism-based. Details: dose 50 mg/kg, route oral. The conditions noted are these: in vivo, read-out: Vc/F.
Data set [7] concerns Heart. Kind of data set: Cardiotoxicity against Sprague-Dawley rat Langendorff perfused heart assessed as heart rate at 30 uM by electrophysiological analysis (reference value: 236.68 7.83 bpm). It counts as toxicity, tissue-based.
The test system of data set [8] is Plasmodium berghei. Kind of data set: Antimalarial activity against Plasmodium berghei ANKA expressing GFP infected in mouse assessed as mean survival days at 30 mg/kg, po administered QD for 3 days (reference value: 6 to 7 days). Type of data set: functional.

The source made the active and inactive calls. No cut-off for these calls is given here.

`Clc1ccc(C(Nc2ccnc3cc(Cl)ccc23)c2ccc(CN3CCNCC3)cc2)cc1` (racemic): the result in the data set with Plasmodium berghei [1] was inactive. For the same compound, the Time in the data set on Heart [2] was determined as 294 ms. Besides, the Activity in the data set with Plasmodium berghei [3] is 99.7%; in the data set on Heart [5], 235.08 bpm; in the data set with Heart [7] it was 116.31 bpm. The figures for the MSD in the data set with Plasmodium berghei [4] and in the data set on Plasmodium berghei [8] were 29.6 days and 29 days, respectively. Further, in data set [6], the Vd/F was 153 L/kg.
